For orientation: melting point means the temperature of the solid-liquid transition. What is called IC50 is the concentration at which inhibition is half-maximal.

SMILES strings stand for the structures. Substitutions are numbered along the chain they refer to. Where a name gives a salt, the structure may show the parent alone. Read-outs that look alike come from different tables or passages of the source.

The target in one series is T1, Cathepsin G (Homo sapiens, UniProt P08311).
T1 construct: the product of Elastin Products Company, Inc. derived from human purulent sputum was used; purchased Elastin Products Company, Inc; host or cells: human purulent sputum
T1 sequence (P08311 21-244): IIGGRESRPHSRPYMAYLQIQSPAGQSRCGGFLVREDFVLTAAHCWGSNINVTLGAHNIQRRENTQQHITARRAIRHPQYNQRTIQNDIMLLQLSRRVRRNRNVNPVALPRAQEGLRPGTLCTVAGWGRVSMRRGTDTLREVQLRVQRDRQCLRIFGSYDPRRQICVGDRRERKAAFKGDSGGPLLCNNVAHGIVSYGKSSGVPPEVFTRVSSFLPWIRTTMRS
Briefly: Measurement of cathepsin G inhibitory activity (Suc-Ala-Ala-Pro-Phe-pNA). The series is classed as biochemical. The note with it: cathepsin G from human purulent sputum; 60 minutes at 37° C. As for the experimental part: (§1) Measurement of Cathepsin G Inhibitory Activity and Chymotrypsin Inhibitory Activity
(§2) Each activity of cathepsin G or chymotrypsin was measured by determining the amount of free p-nitroaniline quantitatively using a synthetic substrate that is colorless and yields colored product upon hydrolysis, by means of a spectrophotometer. Chymotrypsin Type I-S derived from bovine pancreas was purchased from SIGMA. As cathepsin G, the product of Elastin Products Company, Inc. derived from human purulent sputum was used. Suc-Ala-Ala-Pro-Phe-pNA (manufactured by SIGMA) was used as the synthetic substrate. An inhibitory effect of a compound on each enzyme was determined by the following method.
(§3) Each test compound (5 μmol) was weighed in a test tube and dissolved into 2 mL of DMSO. […] Then, 200 μL of 1 mmol/L substrate solution was added to initiate en enzymatic reaction under a temperature of 37° C.
(§4) Based on each inhibitory ratio, IC50 value was calculated.

The nature of a further series: Stability in rat plasma. The note with it: 10 μg/mL, 37° C., 60 minutes, HPLC. The series is classed as in vitro ADME. On the procedure: Stability of the compounds of the invention in rat plasma was investigated.
Male SD rats (7-week-old) were anesthetized with ether under over-night fasting conditions and, after an abdominal part was incised, blood was collected from aorta abdominalis using a heparinized disposable plastic syringe. The blood was centrifuged under cooling to collect a supernatant plasma. The collected plasma was stored under freezing at −30° C. and was melted before use. After a test compound was dissolved in DMSO, the solution was added to 200 μL of the plasma so as to be 10 μg/mL, followed by incubation at 37° C. After 60 minutes, the mixture was acidified by adding 200 μL of 0.1 mol/L hydrochloric acid, and then extracted twice with 2 mL of ethyl acetate. The resulting organic layer was evaporated to dryness under a nitrogen gas flow and the residue was dissolved into 200 μL of acetonitrile to prepare a sample solution. On the other hand, the test compound was dissolved into 1% acetonitrile solution of DMSO so as to be 10 μg/mL as a control solution. The sample solution and control solution was investigated by high performance liquid chromatography (hereinafter, abbreviated as HPLC). Residual ratio (%) was determined as percentage by dividing the peak area of the sample solution by the peak area of the control solution.
Column: Waters Nova Pack C18 (inner diameter: 3.9 mm, length: 150 mm)
Mobile phase A: acetonitrile/water=10/90
Mobile phase B: acetonitrile/methanol=50/50
Eluent: Mobile phase A-mobile phase B (100/0 to 0/100, linear gradient, 50 minutes)
Amount of injection: 50 μL

For the next series, the target named is T2, Human chymase (Homo sapiens, UniProt P23946).
T2 sequence (P23946 22-247): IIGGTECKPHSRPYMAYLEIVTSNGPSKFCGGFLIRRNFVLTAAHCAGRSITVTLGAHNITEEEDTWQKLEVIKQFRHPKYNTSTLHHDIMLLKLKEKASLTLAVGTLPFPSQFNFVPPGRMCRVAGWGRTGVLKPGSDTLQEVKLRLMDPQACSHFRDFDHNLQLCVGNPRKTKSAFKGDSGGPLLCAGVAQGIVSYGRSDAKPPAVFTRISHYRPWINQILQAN
The series can be described thus: Measurement of inhibitory activity of human chymase (Ang I substrate, His-Leu/OPT fluorescence).

The target of another series is T3, Simian chymase (Macaca mulatta, UniProt F6SAJ2).
T3 sequence (F6SAJ2 22-247 limits assumed): T2 sequence (P23946 22-247) with F29S, E63K, D159Y, S201L, Q221K, A225G
Briefly: Measurement of inhibitory activity of simian chymase (Ang I substrate, His-Leu/OPT fluorescence). The series is classed as biochemical, rhesus monkey. The note with it: chymase from heart of rhesus monkey; 120 minutes at 37° C.; read-out: Simian chymase IC50 value.

For a further series, the target named is T4, Chymotrypsin (Bos taurus, UniProt P00766).
T4 construct: Chymotrypsin Type I-S derived from bovine pancreas; purchased SIGMA Type I-S; host or cells: bovine pancreas
Briefly: Measurement of chymotrypsin inhibitory activity (Suc-Ala-Ala-Pro-Phe-pNA). As to conditions: Chymotrypsin Type I-S from bovine pancreas; 30 minutes at 37° C. The series is classed as biochemical. On the procedure: as §1, §2, §3, §4

[1] abbreviates: read-out: Human cymase IC50 value, human chymase from silkworms infected with baculovirus, 120 minutes at 37° C.

Description for Human chymase: (§5) That is, the activity was measured by reacting free His-Leu formed together with Ang II with o-phthalaldehyde (hereinafter, abbreviated as OPT) to prepare a fluorescent derivative and determining the amount quantitatively by means of a fluorophotometer.
(§6) First, 3.6 μmol of each test compound was weighed in a test tube and was dissolved into 3 mL of DMSO. The DMSO solution was diluted 1000-fold with 20 mmol/L Tris-hydrochloric acid buffer solution (pH 8.0) containing 0.01% Triton X-100 and 0.5 mol/L potassium chloride to prepare 1.2×10^−6 mol/L solution, which was successively diluted with the buffer solution to prepare test sample solutions having concentrations of 1.2×10^−6 mol/L to 1.2×10^−9 mol/L. To 500 μL of the test sample solution of each concentration or buffer solution was added 50 μL of an enzyme solution, followed by 10 minutes of pre-incubation at 37° C. Then, 50 μL of 0.1 mmol/L Ang I solution was added to initiate a reaction. Human angiotensin I (manufactured by SIGMA) was employed as Ang I. The enzyme solution to be used for the reaction was adjusted so as to hydrolyze about 60% of substrate under the conditions, and the reaction wherein a buffer solution containing no enzyme was carried out as a blind test. […] Thereafter, the reaction mixture was centrifuged at 4° C. at 3,000 rpm for 10 minutes and 2 mL of 2 mol/L sodium hydroxide and 1 mL of methanol were added to 1 mL of the resulting supernatant. […] The measurement was repeated twice for each sample and blind test. The fluorescence intensity obtained by subtracting the average value at blind test from the average value thereof was determined as chymase activity.
(§7) In this regard, an enzymatic reaction using a buffer solution instead of the test sample solution was carried out as a control, and inhibitory ratio of chymase activity was determined as percentage by dividing the difference of subtraction of the activity at the addition of the test compound from the chymase activity at the control by the chymase activity at the control.
Description for Simian chymase: as §5, §6, §7

`Cc1c(S(=O)(=O)Nc2ccc(C(=O)NCC(=O)O)cc2S(C)(=O)=O)sc2ccc(Cl)cc12` (as salt: sodium) [Compound 52] had a melting point of 290 to 292 °C.

Take `CC(C)C[C@H](NC(=O)[C@@H](NC(=O)N[C@@H](Cc1ccccc1)C(=O)O)[C@@H]1CCN=C(N)N1)C(=O)N[C@H](C=O)Cc1ccccc1` [Chymostatin, reference compound]: the IC50 at Cathepsin G was found to be 5.99 nM.

For the compound `COC(=O)c1ccc(NS(=O)(=O)c2sc3ccc(Cl)cc3c2C)c(S(C)(=O)=O)c1` [Compound 1, Methyl 4-(5-chloro-3-methylbenzo[b]thiophene-2-sulfonylamino)-3-methanesulfonylbenzoate], the IC50 is over 10000 nM against Cathepsin G, 203 nM on Human chymase (setting [1]), 50 nM on Simian chymase and over 10000 nM against Chymotrypsin. Moreover, in the series “Stability in rat plasma”, the “Residual ratio in rat plasma” value is recorded as 93.9%.

With `CCOC(=O)c1ccc(NS(=O)(=O)c2sc3ccc(Cl)cc3c2C)c(S(C)(=O)=O)c1` [Compound 2, Ethyl 4-(5-chloro-3-methylbenzo[b]thiophene-2-sulfonylamino)-3-methanesulfonylbenzoate], the IC50 on Simian chymase worked out at 42 nM.

In the case of `Cc1c(S(=O)(=O)Nc2ccc(C(=O)OC(C)(C)C)cc2S(C)(=O)=O)sc2ccc(Cl)cc12` [Compound 3, tert-butyl 4-(5-chloro-3-methylbenzo[b]thiophene-2-sulfonylamino)-3-methanesulfonylbenzoate], at Simian chymase, the IC50 amounted to 178 nM.

Turning to `CCS(=O)(=O)c1cc(C(=O)OC)ccc1NS(=O)(=O)c1sc2ccc(Cl)cc2c1C` [Compound 4, Methyl 4-(5-chloro-3-methylbenzo[b]thiophene-2-sulfonylamino)-3-ethanesulfonylbenzoate], the IC50 on Cathepsin G is over 10000 nM; on Simian chymase it was 111 nM; against Chymotrypsin, over 10000 nM. The “Residual ratio in rat plasma” value in the series “Stability in rat plasma” was found to be 93.5%.

As to `COC(=O)c1cc(S(C)(=O)=O)c(NS(=O)(=O)c2sc3ccc(Cl)cc3c2C)cc1C` [Compound 5, Methyl 4-(5-chloro-3-methylbenzo[b]thiophene-2-sulfonylamino)-5-methanesulfonyl-2-methylbenzoate], the figures for the IC50 against Cathepsin G, at Simian chymase and on Chymotrypsin were over 1000 nM, 150 nM and over 1000 nM, respectively. In addition, the “Residual ratio in rat plasma” value in “Stability in rat plasma” came out at 85.2%.

On to `COC(=O)c1ccc(NS(=O)(=O)c2sc3ccc(Cl)cc3c2C)c([N+](=O)[O-])c1` [Compound 8, Methyl 4-(5-chloro-3-methylbenzo[b]thiophene-2-sulfonylamino)-3-nitrobenzoate], for which the IC50 against Cathepsin G and at Chymotrypsin was over 10000 nM in each case.

Take `CC(=O)c1ccc(NS(=O)(=O)c2sc3ccc(Cl)cc3c2C)c(S(C)(=O)=O)c1` [Compound 11, N-(4-acetyl-2-methanesulfonylphenyl)-5-chloro-3-methylbenzo[b]thiophene-2-sulfonamide]: the IC50 at Human chymase was 271 nM; on Simian chymase, 100 nM.

Turning to `Cc1c(S(=O)(=O)Nc2ccc(CO)cc2S(C)(=O)=O)sc2ccc(Cl)cc12` [Compound 13, 5-chloro-N-(4-hydroxymethyl-2-methanesulfonylphenyl)-3-methylbenzo[b]thiophene-2-sulfonamide], the IC50 on Simian chymase turned out to be 271 nM.

In the case of `CCOC(=O)c1ccc(NS(=O)(=O)c2sc3ccc(Cl)cc3c2C)cc1` [Compound 14, ethyl 4-(5-chloro-3-methylbenzo[b]thiophene-2-sulfonylamino)benzoate], the IC50 against Cathepsin G is over 10000 nM; on Simian chymase it was 278 nM; against Chymotrypsin it was over 10000 nM. In addition, the “Residual ratio in rat plasma” value in “Stability in rat plasma” stood at 79.2%.

On to `CC(=O)c1ccc(NS(=O)(=O)c2sc3ccc(F)cc3c2C)c(S(C)(=O)=O)c1` [Compound 19, N-(4-acetyl-2-methanesulfonylphenyl)-5-fluoro-3-methylbenzo[b]thiophene-2-sulfonamide], for which, in “Stability in rat plasma”, the “Residual ratio in rat plasma” value is reported as 96.2%. Further, the IC50 at Human chymase (setting [1]) worked out at 82 nM; on Simian chymase, 20 nM.

`COC(=O)c1ccc(NS(=O)(=O)c2sc3ccccc3c2C)c(S(C)(=O)=O)c1` [Compound 20, methyl 4-(3-methylbenzo[b]thiophene-2-sulfonylamino)-3-methanesulfonylbenzoate]: the IC50 at Human chymase (setting [1]) came to 305 nM; at Simian chymase, 39 nM.

In turn, `COC(=O)c1coc(-c2ccc(NS(=O)(=O)c3sc4ccc(Cl)cc4c3C)c(S(C)(=O)=O)c2)n1` [Compound 25, methyl 2-[4-(5-chloro-3-methylbenzo[b]thiophene-2-sulfonylamino)-3-methanesulfonylphenyl]oxazole-4-carboxylate] yielded a melting point of 296 to 298 °C. Besides, the IC50 at Simian chymase is 75 nM.

On to `Cc1c(S(=O)(=O)Nc2ccc(-c3nc(C(=O)O)co3)cc2S(C)(=O)=O)sc2ccc(Cl)cc12` [Compound 26, 2-[4-(5-chloro-3-methylbenzo[b]thiophene-2-sulfonylamino)-3-methanesulfonylphenyl]oxazole-4-carboxylic acid], for which the IC50 against Cathepsin G was over 10000 nM; against Human chymase, 150 nM; on Simian chymase, 10 nM; at Chymotrypsin it was over 10000 nM. In addition, in “Stability in rat plasma”, the “Residual ratio in rat plasma” value amounted to 100%.

For `Cc1c(S(=O)(=O)Nc2ccc(C(=O)NCC(=O)O)cc2S(C)(=O)=O)sc2ccc(Cl)cc12` [Compound 52], the half-maximal inhibitory concentration (IC50) at Simian chymase is 157 nM.

On Human chymase, `COc1oc(-c2ccc(NS(=O)(=O)c3sc4ccc(F)cc4c3C)c(S(C)(=O)=O)c2)nc1C` [Compound 56, 5-fluoro-N-[2-methanesulfonyl-4-(5-methoxy-4-methyloxazol-2-yl)phenyl]-3-methylbenzo[b]thiophene-2-sulfonamide] returned an IC50 of 102 nM.

On to `Cc1c(S(=O)(=O)Nc2ccc(-c3nc(CO)cs3)cc2S(C)(=O)=O)sc2ccc(F)cc12` [Compound 63, 5-fluoro-N-[4-(4-hydroxymethylthiazol-2-yl)-2-methanesulfonylphenyl]-3-methylbenzo[b]thiophene-2-sulfonamide], for which the IC50 against Human chymase was 20 nM.

Regarding `Cc1c(S(=O)(=O)Nc2ccc(-c3nc(CO)co3)cc2S(C)(=O)=O)sc2ccc(F)cc12` [Compound 66], the melting point lay within 242 to 244 °C. The compound further yielded a half-maximal inhibitory concentration (IC50) against Human chymase of 39 nM.

For `Cc1coc(-c2ccc(NS(=O)(=O)c3sc4ccc(F)cc4c3C)c(S(C)(=O)=O)c2)n1` [Compound 68], the melting point was 206 to 208 °C. Inhibition against Human chymase was half-maximal at 101 nM (IC50).

Take `CS/C(=C\c1ccc(NS(=O)(=O)c2sc3ccc(F)cc3c2C)c(S(C)(=O)=O)c1)[S+](C)[O-]` (centres unmarked) [Compound 72, 5-fluoro-N-[2-methanesulfonyl-4-((E)-2-methanesulfinyl-2-methylsulfanylvinyl)phenyl]-3-methylbenzo[b]thiophene-2-sulfonamide]: the IC50 against Human chymase worked out at 20 nM.

On to `Cc1c(S(=O)(=O)Nc2ccc(-c3ncco3)cc2S(C)(=O)=O)sc2ccc(F)cc12` [Compound 73, 5-fluoro-N-[2-methanesulfonyl-4-(oxazol-2-yl)phenyl]-3-methylbenzo[b]thiophene-2-sulfonamide], for which, at Human chymase, the IC50 was 55 nM.

The record behind these values is patent US7071220B2, “N-substituted benzothiophenesulfonamide derivatives” (Toa Eiyo Ltd., priority 2000, dated 2006).
